Converted amounts (≈) assume the structure as drawn.
Key:
Experiment in all cases: in vitro antibacterial MIC, agar plate dilution
Format in all cases: cell-based
[1] = test system: Acinetobacter calcoaceticus MOR 84-43; conditions: MOR8443, 18 hours, 35° C., read-out: MIC
How it was run: (§1)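 MIC, mcg/ml: lowest concentration with no visible growth after 18 h incubation at 35° C. Mueller-Hinton agar dilution plates; ~10^4 CFU inoculum via Steers replicating device.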

[2] = test system: Enterobacter aerogenes VGH 84-36; conditions: Klebsiella aerogenes, VGH8436, 18 hours, 35° C., read-out: MIC
How it was run: as §1

[3] = test system: Klebsiella pneumoniae MOR 84-4; conditions: Klebsiella pneumoniae, MOR844, 18 h, 35° C., read-out: MIC
How it was run: as §1

[4] = test system: Staphylococcus epidermidis CMC 83-135; conditions: CMC83135, 18 hours, 35° C., read-out: MIC
How it was run: as §1

Compound `O=C(O)c1cn(C2CC2)c2cc(N3CCNC(c4ccco4)C3)c(F)cc2c1=O` (stereo not shown) [Example 62, 1-Cyclopropyl-6-fluoro-7-[3-(2-furanvl)-1-piperazinyl]-1,4-dihydro-4-oxo-3-quinolinecarboxylic acid] has an MIC [1] of 0.06 µg/mL (≈ 0.151 µM), an MIC [2] of 0.12 µg/mL (≈ 0.302 µM) and an MIC [3] of 0.12 µg/mL (≈ 0.302 µM). The MIC [4] was 0.03 µg/mL (≈ 0.0755 µM).

Reference: patent US5210193A, “Piperazine derivatives” (American Cyanamid Company, priority 1990, dated 1993)
